Literature values as cited in paper PMC6225257 (Molecules : A Journal of Synthetic Chemistry and Natural …, 2018).

Conditions: patients with chronic kidney disease; ref [18]
Text: Here, we conjugated P88 to a paramagnetic MRI CA comprising a chelator (1,4,7,10-tetraazacyclododecane-1,4,7,10-tetraacetic acid, DOTA) complexed with GdCl3 to solve eventual limitations of the superparamagnetic CAs and pave the way towards future clinical implementation. Gadolinium (Gd)-based CAs (GBCA) are routinely employed in radiology as diagnostic agents.

## Gd-DOTA
  effect on renal function: does not affect renal function
